What was measured:
Plasmodium falciparum [1] = assay: Antimalarial activity against Plasmodium falciparum 3D7 infected in RBC assessed as parasite-specific lactate dehydrogenase release; type: functional, organism-based
Plasmepsin II = Plasmepsin II (Plasmodium falciparum, UniProt P46925); assay: Inhibition of Plasmodium falciparum plasmepsin 2 using DABCYL-Glu-Arg-Nle-Phe-Leu- Ser-Phe-Pro-EDANS fluorogenic substrate by fluorogenic assay
[2] = Inhibition of Plasmodium falciparum plasmepsin 4 using DABCYL-Glu-Arg-Nle-Phe-Leu- Ser-Phe-Pro-EDANS fluorogenic substrate by fluorogenic assay
[3] = molecular target: Cathepsin D (Homo sapiens) (UniProt P07339); assay: Inhibition of human liver Cathepsin D using KPIEF(nF)RL chromogenic substrate at 5 uM by absorbance assay
Sequence of Cathepsin D (Homo sapiens) (P07339 65-162 limits assumed): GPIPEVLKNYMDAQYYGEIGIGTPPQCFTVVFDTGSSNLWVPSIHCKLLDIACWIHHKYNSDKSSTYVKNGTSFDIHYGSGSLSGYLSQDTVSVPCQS
Sequence of Cathepsin D (Homo sapiens) (P07339 169-412 limits assumed): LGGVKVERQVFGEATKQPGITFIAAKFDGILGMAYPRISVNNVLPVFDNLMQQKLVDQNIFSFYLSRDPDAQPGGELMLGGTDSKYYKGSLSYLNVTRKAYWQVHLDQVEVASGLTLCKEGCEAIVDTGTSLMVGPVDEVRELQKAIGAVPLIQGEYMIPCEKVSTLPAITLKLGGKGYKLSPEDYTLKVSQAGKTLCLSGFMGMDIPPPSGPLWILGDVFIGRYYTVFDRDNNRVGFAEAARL

[4] = molecular target: Plasmepsin II (Plasmodium falciparum) (UniProt P46925); assay: Inhibition of Plasmodium falciparum plasmepsin 2 using DABCYL-Glu-Arg-Nle-Phe-Leu- Ser-Phe-Pro-EDANS fluorogenic substrate at 5 uM by fluorogenic assay
Sequence of Plasmepsin II (Plasmodium falciparum) (P46925 125-453 limits assumed): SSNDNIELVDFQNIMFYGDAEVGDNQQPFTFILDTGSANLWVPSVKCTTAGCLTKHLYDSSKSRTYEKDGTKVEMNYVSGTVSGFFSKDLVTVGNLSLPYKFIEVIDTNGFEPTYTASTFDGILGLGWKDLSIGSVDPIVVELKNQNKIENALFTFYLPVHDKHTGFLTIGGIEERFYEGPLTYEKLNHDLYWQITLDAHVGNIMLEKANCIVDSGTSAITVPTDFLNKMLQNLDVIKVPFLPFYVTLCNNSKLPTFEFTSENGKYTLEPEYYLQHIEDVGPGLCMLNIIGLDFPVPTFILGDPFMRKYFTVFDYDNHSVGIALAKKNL

Plasmodium falciparum [5] = assay: Inhibition of Plasmodium falciparum plasmepsin 4 using DABCYL-Glu-Arg-Nle-Phe-Leu- Ser-Phe-Pro-EDANS fluorogenic substrate at 5 uM by fluorogenic assay
Plasmodium falciparum [6] = assay: Antimalarial activity against Plasmodium falciparum 3D7 infected in RBC assessed as parasite-specific lactate dehydrogenase release at 16 uM; type: functional

Sequence of Plasmepsin II (P46925 whole entry): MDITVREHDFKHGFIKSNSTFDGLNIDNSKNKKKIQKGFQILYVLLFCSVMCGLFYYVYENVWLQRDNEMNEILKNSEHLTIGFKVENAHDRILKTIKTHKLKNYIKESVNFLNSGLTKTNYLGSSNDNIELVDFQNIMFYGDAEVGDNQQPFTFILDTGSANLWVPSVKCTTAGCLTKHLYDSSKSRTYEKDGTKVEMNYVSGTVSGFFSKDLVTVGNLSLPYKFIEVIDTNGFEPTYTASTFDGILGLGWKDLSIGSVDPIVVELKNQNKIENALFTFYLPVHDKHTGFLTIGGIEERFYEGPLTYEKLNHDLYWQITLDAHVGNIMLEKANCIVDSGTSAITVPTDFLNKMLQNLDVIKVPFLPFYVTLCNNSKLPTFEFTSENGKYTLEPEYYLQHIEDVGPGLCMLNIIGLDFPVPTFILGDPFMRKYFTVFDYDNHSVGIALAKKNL

| SMILES | IC50 (Plasmodium falciparum [1]) [µM] | IC50 (Plasmepsin II) [µM] | Ki (Plasmepsin II) [µM] | IC50 [2] [µM] | Ki [2] [µM] | inhibition [3] [%] | inhibition [4] [%] | inhibition (Plasmodium falciparum [5]) [%] | inhibition at 16 µM (Plasmodium falciparum [6]) [%] |
| --- | --- | --- | --- | --- | --- | --- | --- | --- | --- |
| O=C(NCCNC(=O)/C(=C\c1ccco1)NC(=O)c1ccccc1)/C(=C/c1ccco1)NC(=O)c1ccccc1 | 12 |  |  |  |  |  |  |  |  |
| CC(C)CCNC(=O)[C@H](c1c[nH]c2ccccc12)N(C(=O)c1snc(C(N)=O)c1N)c1ccc2c(c1)OCO2 | 2.21 | 21.3 | 10.6 | 26 | 20 | 12 |  |  |  |
| CCOC(=O)c1ccc(/N=C2\S/C(=C\c3ccc(C(C)(C)C)cc3)C(=O)N2c2ccc(C(=O)OCC)cc2)cc1 | 5 | 6.1 | 4 | 3.7 | 3.23 | 15 |  |  |  |
| Cc1ccc(NC(=S)N(Cc2ccc3c(c2)OCO3)Cc2cc3cccc(C)c3[nH]c2=O)cc1 | 9.6 | 7 | 4.6 | 6.3 | 5.5 | 35 |  |  |  |
| COc1ccc(Cl)cc1NC(=O)c1sc2nc(-c3ccccc3)cc(-c3ccc(OCc4ccccc4)c(OC)c3)c2c1N | 2.3 | 2.3 | 1.6 | 6.2 | 5.4 | 12 |  |  |  |
| CCN(CC)c1ccc(/C=N/NC(=O)CSc2nc3ccccc3n2Cc2ccc(Cl)cc2)cc1 | 2.18 | 2.4 | 1.2 | 0.62 | 0.47 | 10 |  |  |  |
| CCOc1cccc(-c2cc(C(=O)N/N=C/c3ccc(OC)c(CN4CCSCC4)c3)c3ccccc3n2)c1 | 40 |  |  |  |  |  |  |  |  |
| CCCCc1ccc(-c2cc(C(=O)Nc3scc(-c4cccnc4)c3C(=O)OC)c3cc(Br)ccc3n2)cc1 | 1.24 |  |  |  |  |  |  |  |  |
| COc1ccc([C@@H](C(=O)NC2CCCC2)N(C(=O)c2snc(C(N)=O)c2N)c2ccc(OC)cc2)cc1 | 25 |  |  |  |  |  |  |  |  |
| CCOc1ccc(N(C(=O)c2snc(C(=O)NC3CCCCC3)c2N)[C@H](C(=O)NCCc2ccccc2)c2ccc(OC)cc2)cc1 | 0.35 |  |  |  |  | 20 | 30 | 20 |  |
| COc1ccc(-c2cc(-c3ccc(Cl)cc3)c(C#N)c(S[C@H](C)C(=O)Nc3ccc(C(C)=O)cc3)n2)cc1 |  |  |  |  |  |  |  |  | 32 |
| COC(=O)CCC(=O)N(CCN(Cc1ccccc1)C(=O)CCC(=O)OC)Cc1ccccc1 | 5.24 | 10 | 7 | 9 |  | 35 |  |  |  |
| CCN(CC)C(=O)c1sc(NC(=O)c2cc(-c3cccc(C)c3)nc3ccccc23)c(C(=O)OC)c1C | 4.5 | 2.5 | 2 | 2.6 | 2.5 | 20 |  |  |  |
| CCCCOc1ccc(-c2cc(C(=O)N/N=C(\C=C\c3ccc4c(c3)OCO4)c3ccc(OC)cc3)c3ccccc3n2)cc1 | 24 |  |  |  |  |  |  |  |  |
| CCCCOc1cccc(-c2cc(C(=O)N/N=C(\C)c3cccc(NC(=O)C(C)(C)C)c3)c3ccccc3n2)c1 | 3.7 | 11.5 | 8 | 15 | 13 | 12 |  |  |  |

— ChEMBL document CHEMBL1777683, “Identification of plasmepsin inhibitors as selective anti-malarial agents using ligand based drug design” (Bioorg Med Chem Lett, 2011)
